Test results from article PMC7894522, “Structure Based Design of Bicyclic Peptide Inhibitors of RbAp48” (Angewandte Chemie (International Ed. in English), 2020).
Starred links: 1 amine or outer side, 2 acyl side, 3 side chain; linkers in the order of their positions; H or OH if unused. Positions of bridges follow the written chain, without caps; N, C: chain ends. Residues, ends and D or L forms follow the SMILES beside them. TBMB = c1c(C[*:1])cc(C[*:3])cc1C[*:2]

Assays:
RbAp48 = RbAp48 (Homo sapiens, UniProt Q09028); test: Competitive fluorescence polarization (FP) assay using complex of peptide 1 and RbAp48; assay type: binding; set-up: Full length RbAp48 was cloned; His tag followed by 3C cleavage site (N, cleaved yes); made in house; host or cells: Sf9 insect cells; settings: for IC50: Table 1, competitive FP, tracer peptide 1 1 nM, RbAp48 15 nM, 20 mM Tris-HCl, 150 mM NaCl, 0.01% Tween-20, pH 7.5, 30 min room temperature, lower limit set by 15 nM protein, read-out: IC50; for FP activity in words: competitive FP assay
Method in brief: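 Sf9-expressed full-length RbAp48 (tag cleaved), 15 nM, displaced from 1 nM fluorescent peptide tracer in 20 mM Tris-HCl pH 7.5, 150 mM NaCl, 0.01% Tween-20. Read by FP (ex 485/em 535 nm) after 30 min at room temperature.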

p53 = p53 expression level assay (western blot); assay type: cell-based; settings: U2OS cells, 10 µM, 24 h, p53 vs alpha tubulin, two biological replicates
Description: Encouraged by the promising results from the pulldown experiment, and in order to get insight into bioactivity and possible mode of action, we analyzed peptide 33 in a morphological cell painting assay. The cell painting assay is a target agnostic assay which determines a cells morphological profile after treatment with a compound of interest and compares it to the profiles of a set of reference compounds. ^[22] By identifying reference compounds with a similar profile a hypothesis of the compounds mode of action can be generated based on their annotated targets. ^[23] U2OS cells were treated with our compound and 579 parameters were analyzed. […] We therefore synthesized a variant modified with an N‐terminal TAT sequence to enhance its permeability (compound 49, see Table 1 and Supplemental Figure 4). ^[24] […] Applying compound 49 to the cell painting assay led to an induction of 5.9 % and the corresponding profile was compared to the set of 3000 reference compounds. […] To validate this hypothesis, we exposed U2OS cells to compound 49 and evaluated the levels of p53 by Western blot. […]
U2OS cells were incubated with 10 µM compound 49, 50 or DMSO (DMSO 0.5%) for 24 h followed by lysis for western blotting analysis. p53 ex pression was monitored using fluorescent antibody. Signal ration between p53 and loading control (alpha tubulin) was measured. […]

U2OS cells = test: Morphological cell painting assay; assay type: cell-based; settings: U2OS cells, 20 h, 579 parameters, fraction of significantly changed parameters vs DMSO; 10, 3 or 1 µM
Description: Encouraged by the promising results from the pulldown experiment, and in order to get insight into bioactivity and possible mode of action, we analyzed peptide 33 in a morphological cell painting assay. The cell painting assay is a target agnostic assay which determines a cells morphological profile after treatment with a compound of interest and compares it to the profiles of a set of reference compounds. ^[22] By identifying reference compounds with a similar profile a hypothesis of the compounds mode of action can be generated based on their annotated targets. ^[23] U2OS cells were treated with our compound and 579 parameters were analyzed. […] We therefore synthesized a variant modified with an N‐terminal TAT sequence to enhance its permeability (compound 49, see Table 1 and Supplemental Figure 4). ^[24] […] Applying compound 49 to the cell painting assay led to an induction of 5.9 % and the corresponding profile was compared to the set of 3000 reference compounds. […] To validate this hypothesis, we exposed U2OS cells to compound 49 and evaluated the levels of p53 by Western blot. […] The exact mechanism by which the compounds elevate levels of p53 requires further investigation. However, it has previously been shown that the NuRD complex, of which RbAp48 is a core component, is able to deacetylate p53 and thereby modulate its stability. ^[26] The effect is mediated by the MTA family of proteins from which the compounds described here are derived. […]
The described assay follows closely the method described by Bray et al. Initially, 5 µl U2OS medium were added to each well of a 384 -well plate (PerkinElmer CellCarrier -384 Ultra). Subsequently, U2OS cell were seeded with a density of 1600 cells per well in 20 µl medium. The plate was incubated for 10 min at the ambient temperatu re, followed by an a dditional 4 h incubation (37 °C, 5 % CO2). Compound treatment was performed with the Echo 520 acoustic dispenser (Labcyte) at final concentrations of 10 µM, 3 µM or 1 µM. Incubation with compound was performed for 20 h (37 °C, 5 % CO2). Subsequently, mitoc hondria were stained with Mito Tracker Deep Red (Thermo Fisher Scientific, Cat. No. M22426). The Mito Tracker Deep Red stock solution (1 mM) was diluted to a final concentration of 100 nM in prewarmed medium. The medium was removed fr om the plate leaving 1 0 µl residual volume and 25 µl of the Mito Tracker solution were added to each well. 22 The plate was incubated for 30 min in darkness (37 °C, 5 % CO2). To fix the cells 7 µl of 18.5 % formaldehyde in PBS were added, resulting in a fi nal formaldehyde conce ntration of 3.7 %. Subsequently, the plate was incubated for another 20 min in darkness (RT) and washed three times with 70 µl of PBS. (Biotek Washer Elx405). Cells were permeabilized by addition of 25 µl 0.1 % Triton X -100 to each well, followed by 15 min incubation (RT) in darkness. The cells were washed three times with PBS leaving a final volume of 10 µl. To each well 25 µl of a staining solution were added, which contains 1 % BSA, 5 µl/mL Phalloidin (Thermo Fisher Scientific, A123 81), 25 µg/ml Concanav alin A (Thermo Fisher Scientific, Cat. […]
conjugate (Thermo Fisher Scientific, Cat. No. W11262) and […] SYTO 14 solution (Thermo Fisher Scientific, Cat. No. S7576). The plate is incubated for 30 min (RT) in darkness and washed three times with 70 µl PBS. After the final washing step the PBS was not aspirated. The plates were sealed and centrifuged for 1 min at 500 rpm.
The plates were prepare d in triplicates with shifted layouts to reduce plate effects and imaged using a Micro XL High-Content Screening System (Molecular Devices) in 5 channels (DAPI: Ex350 -400/ Em410- […]
The generated images were processed with the CellProfiler package (https://cellprofiler.org/, version 3.0.0) on a computing cluster of the Max Planck Society to extract 1716 cell features (parameters) per microscope site. The data was then further aggregated as medians per well (9 sites -> 1 well), then […]

Sequence of RbAp48 (Q09028 whole entry): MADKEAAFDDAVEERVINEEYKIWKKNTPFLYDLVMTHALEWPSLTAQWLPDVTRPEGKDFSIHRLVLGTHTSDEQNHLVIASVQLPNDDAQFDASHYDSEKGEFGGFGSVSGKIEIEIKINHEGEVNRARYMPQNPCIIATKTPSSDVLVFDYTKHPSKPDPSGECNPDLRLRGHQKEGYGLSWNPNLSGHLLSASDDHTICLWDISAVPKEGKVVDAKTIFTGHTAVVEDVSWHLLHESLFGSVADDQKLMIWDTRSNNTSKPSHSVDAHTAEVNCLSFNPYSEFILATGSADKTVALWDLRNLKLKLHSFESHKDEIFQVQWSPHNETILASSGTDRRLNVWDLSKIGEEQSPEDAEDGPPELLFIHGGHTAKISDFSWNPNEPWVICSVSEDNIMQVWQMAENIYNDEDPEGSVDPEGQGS

Compound: N=C(N)NCCC[C@H](NC(=O)CN)C(=O)N[C@@H](CCCCN)C(=O)N[C@@H](CCCCN)C(=O)N[C@@H](CCCNC(=N)N)C(=O)N[C@@H](CCCNC(=N)N)C(=O)N[C@@H](CCC(N)=O)C(=O)N[C@@H](CCCNC(=N)N)C(=O)N[C@@H](CCCNC(=N)N)C(=O)N[C@@H](CCCNC(=N)N)C(=O)N1CCC[C@H]1C(=O)N[C@@H](CCC(N)=O)C(N)=O [Peptide 50, reference compound]
- IC50 (RbAp48): 1.24 ± 0.358 µM
- FP activity in words (RbAp48): weakly inhibit the interaction
- levels of p53 (p53): no increase

Compound: C[C@H](NC(=O)[C@@H]1CSCc2cc3cc(c2)CSC[C@H](NC(=O)[C@H](CCCNC(=N)N)NC(=O)[C@H](CCCCN)NC(=O)[C@H]([C@@H](C)O)NC(=O)[C@@H](NC(=O)CNC(=O)[C@H](CCC(N)=O)NC(=O)[C@@H]2CCCN2C(=O)[C@H](CCCNC(=N)N)NC(=O)[C@H](CCCNC(=N)N)NC(=O)[C@H](CCCNC(=N)N)NC(=O)[C@H](CCC(N)=O)NC(=O)[C@H](CCCNC(=N)N)NC(=O)[C@H](CCCNC(=N)N)NC(=O)[C@H](CCCCN)NC(=O)[C@H](CCCCN)NC(=O)[C@H](CCCNC(=N)N)NC(=O)CN)CSC3)C(=O)N[C@@H](C)C(=O)N[C@@H](CCCNC(=N)N)C(=O)N[C@@H](CCCNC(=N)N)C(=O)N2CCC[C@H]2C(=O)N[C@@H](Cc2ccc(O)cc2)C(=O)N[C@@H](CCCCN)C(=O)N2CCC[C@H]2C(=O)N1)C(N)=O [Peptide 49] (H-GRKKRRQRRRPQGCTKRCARRPYKPCA-NH2; linker 14-18-26 via TBMB)
- IC50 (RbAp48): 0.0044 ± 0.0014 µM
- FP activity in words (RbAp48): slightly more active than its parent compound 33
- levels of p53 (p53): increased
- induction (U2OS cells): 5.9%
